Data from paper PMC9945734 (BMC Medicine, 2023).
Like-named read-outs stand apart in the source and are kept apart here.

Test system: PC-3-KQ cells
Test: 3D spheroid invasion assay and screening of FDA-approved drugs
Assay type: cell-based, human
Settings: for Invasion rates (%) of each drug’s multiple concentrations (μM) / activity at 0.01 µM / activity at 0.1 µM / activity at 1 µM / activity at 10 µM: compared to vehicle control; for activity at 0.01 µM / activity at 0.1 µM / activity at 1 µM / activity at 10 µM: 72 h, read-out: Invasion rates (%) of each drug’s multiple concentrations
Procedure: The invasion assay was performed as previously described. […] The plates were then centrifuged at 320 g for 4 min to cluster cells in the bottom of wells and incubated for 3 days. On the fourth day, 40 μL medium was removed from each well, 40 μL of the matrigel-medium mixture was added to each well, and cells were cultured for another 3 days. […] At the end of the incubation, images were taken using a phase contrast microscope (Eclipse Ti2, Nikon, Tokyo, Japan) with 10× object lenses, and the total area of cells and the core sphere area of cells (Fig. 1a) were measured using the Image J software. The invading area was calculated using the following formula: invasion area = total area of cells – core sphere area.
For drug screening, drugs were added to the matrigel-medium mixture when replacing the culture medium on day 4. For the initial round of screening, a final concentration of 10 μM was used for all drugs. Multiple drug concentrations were used for the second round of screening, including 0, 0.001, 0.01, 0.1, 1, and 10 μM. Duplicate wells were repeated for each concentration.

[1] = 0.01 μM (first column so headed), secondary screening of 87 hit compounds (Table S1)
[2] = 0.01 μM (first column so headed), third screening of 25 hit compounds (Table S2)
[3] = 0.01 μM (second column so headed), secondary screening of 87 hit compounds (Table S1)
[4] = 0.01 μM (second column so headed), third screening of 25 hit compounds (Table S2)
[5] = 0.1 μM, secondary screening of 87 hit compounds (Table S1)
[6] = 0.1 μM, third screening of 25 hit compounds (Table S2)
[7] = 1 μM, secondary screening of 87 hit compounds (Table S1)
[8] = 1 μM, third screening of 25 hit compounds (Table S2)
[9] = 10 μM, secondary screening of 87 hit compounds (Table S1)
[10] = 10 μM, third screening of 25 hit compounds (Table S2)
[11] = Homo sapiens, 0.01 μM (first column so headed), secondary screening of 87 hit compounds (Table S1)
[12] = Homo sapiens, 0.01 μM (second column so headed), secondary screening of 87 hit compounds (Table S1)
[13] = Homo sapiens, 0.1 μM, secondary screening of 87 hit compounds (Table S1)
[14] = Homo sapiens, 1 μM, secondary screening of 87 hit compounds (Table S1)
[15] = Homo sapiens, 10 μM, secondary screening of 87 hit compounds (Table S1)
[16] = Homo sapiens, 0.01 μM (first column so headed), third screening of 25 hit compounds (Table S2)
[17] = Homo sapiens, 0.01 μM (second column so headed), third screening of 25 hit compounds (Table S2)
[18] = Homo sapiens, 0.1 μM, third screening of 25 hit compounds (Table S2)
[19] = Homo sapiens, 1 μM, third screening of 25 hit compounds (Table S2)
[20] = Homo sapiens, 10 μM, third screening of 25 hit compounds (Table S2)

Compound | Invasion rates (%) of each drug’s multiple concentrations (μM) [1] [%] | Invasion rates (%) of each drug’s multiple concentrations (μM) [3] [%] | Invasion rates (%) of each drug’s multiple concentrations (μM) [5] [%] | Invasion rates (%) of each drug’s multiple concentrations (μM) [7] [%] | Invasion rates (%) of each drug’s multiple concentrations (μM) [9] [%] | activity at 0.01 µM [11] [%] | activity at 0.01 µM [12] [%] | activity at 0.1 µM [13] [%] | activity at 1 µM [14] [%] | activity at 10 µM [15] [%] | other results
Cc1nc(Nc2ncc(C(=O)Nc3c(C)cccc3Cl)s2)cc(N2CCN(CCO)CC2)n1.Cl [Dasatinib (hydrochloride)] | 54.32 | 60.68 | 53.75 | 49.82 | 38.63 |  |  |  |  |  | Invasion rates (%) of each drug’s multiple concentrations (μM) [2]: 99.47%; Invasion rates (%) of each drug’s multiple concentrations (μM) [4]: 101.09%; Invasion rates (%) of each drug’s multiple concentrations (μM) [6]: 92.00%; Invasion rates (%) of each drug’s multiple concentrations (μM) [8]: 87.73%; Invasion rates (%) of each drug’s multiple concentrations (μM) [10]: 56.83%
Spiramycin | 90.26 | 91.77 | 85.48 | 80.28 | 55.32 |  |  |  |  |  | 
CCO[C@H]1O[C@@H]2O[C@@]3(C)CC[C@H]4[C@H](C)CC[C@@H]([C@H]1C)[C@@]24OO3 [Artemotil] |  |  |  |  |  | 96.2 | 95.5 | 90.7 | 85.7 | 0.51 | 
CCN1CCN(Cc2ccc(Nc3ncc(F)c(-c4cc(F)c5nc(C)n(C(C)C)c5c4)n3)nc2)CC1.CS(=O)(=O)O [Abemaciclib (methanesulfonate)] | 93.33 | 94.22 | 93.89 | 89.88 | 47.24 |  |  |  |  |  | 
Cc1nc(Nc2ncc(C(=O)Nc3c(C)cccc3Cl)s2)cc(N2CCN(CCO)CC2)n1 [Dasatinib] |  |  |  |  |  | 46.2 | 49.7 | 37.7 | 37.1 | 15.1 | activity at 0.01 µM [16]: 95.1%; activity at 0.01 µM [17]: 97.7%; activity at 0.1 µM [18]: 83.4%; activity at 1 µM [19]: 71.7%; activity at 10 µM [20]: 0.9%
CO[C@@H]1[C@@H](O[C@@H]2O[C@H](C)[C@@H](O[C@H]3C[C@@](C)(O)[C@@H](OC(=O)CC(C)C)[C@H](C)O3)[C@H](N(C)C)[C@H]2O)[C@@H](CC=O)C[C@@H](C)[C@@H](O)/C=C/C=C/C[C@@H](C)OC(=O)C[C@H]1OC(C)=O [Josamycin] |  |  |  |  |  | 88.6 | 86.9 | 86.7 | 78 | 15.5 | 
CC(=O)O[C@H]1C[C@@]2(C)[C@@H](C[C@@H](O)[C@H]3[C@@]4(C)CC[C@@H](O)[C@@H](C)[C@@H]4CC[C@@]32C)/C1=C(\CCC=C(C)C)C(=O)[O-].[Na+] [Fusidic acid (sodium salt)] | 92.69 | 89.70 | 87.85 | 68.14 | 0.70 |  |  |  |  |  | 
CN(C)[C@@H]1C(O)=C(C(N)=O)C(=O)[C@@]2(O)C(O)=C3C(=O)c4c(O)cccc4[C@@](C)(O)[C@H]3C[C@@H]12.Cl [Tetracycline (hydrochloride)] | 84.87 | 95.46 | 83.74 | 67.27 | 2.14 |  |  |  |  |  | 
Cc1ncc([N+](=O)[O-])n1CCO [Metronidazole] |  |  |  |  |  | 93.6 | 93.9 | 94.1 | 85.7 | 10.1 | 
C[C@H]1c2cccc(O)c2C(O)=C2C(=O)[C@]3(O)C(O)=C(C(N)=O)C(=O)[C@@H](N(C)C)[C@@H]3[C@@H](O)[C@@H]21 [Doxycycline (hyclate)] | 91.64 | 100.52 | 74.92 | 3.13 | 1.59 |  |  |  |  |  | Invasion rates (%) of each drug’s multiple concentrations (μM) [2]: 101.94%; Invasion rates (%) of each drug’s multiple concentrations (μM) [4]: 98.24%; Invasion rates (%) of each drug’s multiple concentrations (μM) [6]: 93.64%; Invasion rates (%) of each drug’s multiple concentrations (μM) [8]: 5.76%; Invasion rates (%) of each drug’s multiple concentrations (μM) [10]: 1.58%
Cn1c([N+](=O)[O-])cnc1COC(N)=O [Ronidazole] |  |  |  |  |  | 64.2 | 67.3 | 27.6 | 5.96 | 5.14 | activity at 0.01 µM [16]: 81.8%; activity at 0.01 µM [17]: 87.5%; activity at 0.1 µM [18]: 5.74%; activity at 1 µM [19]: 3.06%; activity at 10 µM [20]: 2.89%; inhibition at 0.1 µM (Homo sapiens, at 0.1 μM, read-out: inhibition of cell invasion): > 50%
Gramicidin |  | 107.53 | 94.19 | 93.53 | 0.41 |  |  |  |  |  | 
O.O.O.O.O.O.O.O=C1N=C([O-])CN1/N=C/c1ccc(-c2ccc([N+](=O)[O-])cc2)o1.O=C1N=C([O-])CN1/N=C/c1ccc(-c2ccc([N+](=O)[O-])cc2)o1.[Na+].[Na+] [Dantrolene (sodium hemiheptahydrate)] | 102.88 | 101.64 | 90.54 | 82.27 | 29.15 |  |  |  |  |  | 
CC1CCc2c(N3CCC(O)CC3)c(F)cc3c(=O)c(C(=O)O)cn1c23 (stereo not drawn) [Nadifloxacin] |  |  |  |  |  | 102 | 104 | 101 | 100 | 1.03 | 
CNC[C@H](O)c1cccc(O)c1.Cl [(R)-(-)-Phenylephrine (hydrochloride)] | 103.19 | 103.23 | 98.23 | 96.01 | 4.27 |  |  |  |  |  | 
COc1cc([C@@H]2c3cc4c(cc3[C@@H](O[C@@H]3O[C@@H]5CO[C@@H](c6cccs6)O[C@H]5[C@H](O)[C@H]3O)[C@H]3COC(=O)[C@H]23)OCO4)cc(OC)c1O [Teniposide] |  |  |  |  |  | 93.1 | 91.8 | 85 | 77.2 | 3.21 | 
Daptomycin | 96.29 | 96.99 | 95.71 | 88.47 | 1.26 |  |  |  |  |  | 
CC1CS(=O)(=O)CCN1/N=C/c1ccc([N+](=O)[O-])o1 (stereo not drawn) [Nifurtimox] |  |  |  |  |  | 96.2 | 96.2 | 78.6 | 32.4 | 1.95 | activity at 0.01 µM [16]: 97%; activity at 0.01 µM [17]: 97.5%; activity at 0.1 µM [18]: 93.5%; activity at 1 µM [19]: 5.05%; activity at 10 µM [20]: 0.53%
CC/C(=C(\c1ccccc1)c1ccc(OCCN(C)C)cc1)c1ccccc1 [Tamoxifen] |  |  |  |  |  | 96.2 | 95.4 | 97 | 91.1 | 24.3 | 
